Data: US20240238367A1, “COMPOUNDS FOR TREATING CONDITIONS RELATED TO PCSK9 ACTIVITY” (MERCK SHARP & DOHME LLC, priority 2021, published 2024)
Like-named read-outs stand apart in the source and are kept apart here.

Tests used:
[1] = stability of amorphous salt forms, impurity levels (FIG. 5); format: physicochemical; conditions: chloride salt made with HCl acidification step, risk of excess HCl
[2] = once daily for 14 days
Protocol: (§3) Standard takeaway meals were provided to participants to consume no less than 30 minutes after receiving their once daily dose. In addition to standard safety monitoring, including vital signs, ECG and laboratory safety tests, plasma lipids (total cholesterol, LDL-C, HDL-C and TG) were measured. LDL-C was monitored as part of the safety labs.

[3] = single dose study: safety and tolerability
Text: (§1) Evaluation of pharmacokinetics, pharmacodynamics (reduction of free PCSK9 from baseline) and safety and tolerability of single doses of the compound of formula (I) were studied in normal healthy male volunteers aged 18-50. […] Additionally, this trial examined the effect of permeation enhancer dose on PK, the effect of food on PK, and the effect of various capsule formulations on PK. The pharmacodynamic endpoint measured in this study was target engagement (% change in free PCSK9).
(§2) The capsules were over-encapsulated with enteric capsules (HPMC Vcaps® Enteric, Capsugel®, Lonza).

[4] = molecular target: human PCSK9 (Homo sapiens, UniProt Q8NBP7)
Sequence of human PCSK9 (Q8NBP7 153-692): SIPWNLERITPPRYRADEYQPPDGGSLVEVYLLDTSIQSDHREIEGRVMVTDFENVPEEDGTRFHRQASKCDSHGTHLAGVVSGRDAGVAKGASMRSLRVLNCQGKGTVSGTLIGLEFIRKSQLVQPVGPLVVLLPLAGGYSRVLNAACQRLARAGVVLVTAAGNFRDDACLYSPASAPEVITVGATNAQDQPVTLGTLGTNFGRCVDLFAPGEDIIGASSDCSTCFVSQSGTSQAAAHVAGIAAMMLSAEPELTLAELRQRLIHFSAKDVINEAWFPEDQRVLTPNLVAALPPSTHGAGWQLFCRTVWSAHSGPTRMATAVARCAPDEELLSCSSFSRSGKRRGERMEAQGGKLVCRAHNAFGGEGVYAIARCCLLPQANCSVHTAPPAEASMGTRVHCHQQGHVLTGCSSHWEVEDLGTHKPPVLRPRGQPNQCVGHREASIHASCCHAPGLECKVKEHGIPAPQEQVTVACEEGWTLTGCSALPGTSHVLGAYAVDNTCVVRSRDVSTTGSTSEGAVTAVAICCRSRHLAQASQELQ

[5] = test system: LDL-C; experiment: multiple dose study: LDL-C reduction in participants on statin background therapy
Protocol: as §3
Blood LDL-cholesterol levels were measured using standard clinical laboratory testing procedures predose and on day 3, 7, 14, 15 and 21 after dosing.

[6] = molecular target: T1, free PCSK9 (Homo sapiens, UniProt Q8NBP7); experiment: single dose study: reduction of free plasma PCSK9 from baseline (target engagement); format: in vivo
T1 construct: reduction in plasma levels of free PCSK9 protein; from tissue; host or cells: plasma of healthy human volunteers (in vivo, endogenous)
T1 sequence (Q8NBP7 153-692): as above
T1 sequence (Q8NBP7 31-152 partner limits assumed): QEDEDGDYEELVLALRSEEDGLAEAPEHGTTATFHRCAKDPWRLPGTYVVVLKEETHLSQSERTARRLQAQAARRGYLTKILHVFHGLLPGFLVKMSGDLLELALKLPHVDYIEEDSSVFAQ

[7] = test system: LDL-C; conditions: hard gelatin capsule, 5 mg plus 180 mg sodium caprate, participants taking statins
[8] = rats; co-administration with permeation enhancer (Labrasol, sodium caprate)
[9] = Text: as §1, §2
[10] = rats; subcutaneous dosing plus oral arms; up to/including highest doses administered
[11] = non-human primates; co-administration with permeation enhancer (Labrasol, sodium caprate)
[12] = nonhuman primates; subcutaneous dosing plus oral arms; up to/including highest doses administered
[13] = test system: LDL-C; conditions: ODYSSEY, N Engl J Med 2018; cited from earlier work
[14] = test system: LDL-C; conditions: phase 3 lipid trials, N Engl J Med 2020; cited from earlier work
[15] = test system: LDL-C; conditions: FOURIER, N Engl J Med 2017; cited from earlier work
[16] = single oral doses 10 to 300 mg, healthy male volunteers
[17] = Panel A 200 mg no PE (permeation enhancer)
[18] = Panel B 120 mg with 720 mg Labrasol
[19] = Panel C 40 mg with 720 mg Na Caprate
[20] = Panel C 100 mg with 1800 mg Na caprate

COc1ccc(C[C@@H]2NC(=O)[C@H]([C@@H](C)O)NC(=O)[C@@H]3[C@@H]4CCN3C(=O)[C@@H]3Cc5cn(c6ccc(F)cc56)CCCCCCN(Cc5ccc(cc5)CCNC(=O)[C@]5(C)CCCN5C2=O)C(=O)CCC(=O)N[C@@H](C)C(=O)N[C@H](CNC(=O)CCCCC[N+](C)(C)C)C(=O)N[C@@H](Cc2cccc(c2)CNC(=O)CO4)C(=O)N3)cc1 [Compound 3]
stability / impurity levels of amorphous salt [1]: demonstrate stability

COc1ccc(C[C@@H]2NC(=O)[C@H]([C@@H](C)O)NC(=O)[C@@H]3[C@@H]4CCN3C(=O)[C@@H]3Cc5cn(c6ccc(F)cc56)CCCCCCN(Cc5ccc(cc5)CCNC(=O)[C@]5(C)CCCN5C2=O)C(=O)CCC(=O)N[C@@H](C)C(=O)N[C@H](CNC(=O)CCCCC[N+](C)(C)C)C(=O)N[C@@H](Cc2cccc(c2)CNC(=O)CO4)C(=O)N3)cc1.[Cl-] [Compound 1]
PK of 10 mg plus 180 mg sodium caprate versus 10 mg plus 360 mg sodium caprate [2]: similar
adverse events related to Compound 1 reported by the Investigator [3, 16]: abdominal discomfort, diarrhea, dyspepsia, headache, and maculopapular rash
deaths or severe adverse events (SAEs) [3, 16]: no death or severe adverse events
tolerability ([3]; single oral doses up to 300 mg, healthy male volunteers): well tolerated
severity of treatment-related AEs ([3]; single oral doses, exception of one participant with severe back pain, not dose-related): mild/moderate
binding affinity against human PCSK9 [4]: picomolar
mean reduction of LDL-C ([5]; 10 mg plus 180 mg sodium caprate, once daily for 14 days, statin background): approximately 60%
mean reduction of LDL-C ([5]; 10 mg plus 360 mg sodium caprate, once daily for 14 days, statin background): approximately 64%
mean reduction of plasma LDL-C ([5]; 20 mg plus 360 mg sodium caprate, once daily for 14 days, statin background): approximately 62%
stability / impurity levels of amorphous salt [1]: higher impurity levels
GM Maximum Percent Target Reduction From Baseline of Free PCSK9 ([6]; Panel A 10 mg single dose): 93.32%
Posterior Probability of True GM Free PCSK9 Maximum Percent Reduction ≥80% ([6]; Panel A 10 mg single dose): >0.99
GM Maximum Percent Target Reduction From Baseline of Free PCSK9 [6, 17]: 96.83%
Posterior Probability of True GM Free PCSK9 Maximum Percent Reduction ≥80% [6, 17]: >0.99
GM Maximum Percent Target Reduction From Baseline of Free PCSK9 ([6]; Panel A 200 mg single dose): 99.46%
Posterior Probability of True GM Free PCSK9 Maximum Percent Reduction ≥80% ([6]; Panel A 200 mg single dose): >0.99
GM Maximum Percent Target Reduction From Baseline of Free PCSK9 ([6]; Panel B 35 mg single dose): 98.72%
Posterior Probability of True GM Free PCSK9 Maximum Percent Reduction ≥80% ([6]; Panel B 35 mg single dose): >0.99
GM Maximum Percent Target Reduction From Baseline of Free PCSK9 [6, 18]: 99.43%
Posterior Probability of True GM Free PCSK9 Maximum Percent Reduction ≥80% [6, 18]: >0.99
GM Maximum Percent Target Reduction From Baseline of Free PCSK9 ([6]; Panel B 300 mg single dose): 99.68%
Posterior Probability of True GM Free PCSK9 Maximum Percent Reduction ≥80% ([6]; Panel B 300 mg single dose): >0.99
GM Maximum Percent Target Reduction From Baseline of Free PCSK9 [6, 19]: 97.94%
Posterior Probability of True GM Free PCSK9 Maximum Percent Reduction ≥80% [6, 19]: >0.99
GM Maximum Percent Target Reduction From Baseline of Free PCSK9 ([6]; Panel C 100 mg single dose): 99.36%
Posterior Probability of True GM Free PCSK9 Maximum Percent Reduction ≥80% ([6]; Panel C 100 mg single dose): >0.99
GM Maximum Percent Target Reduction From Baseline of Free PCSK9 [6, 20]: 99.18%
Posterior Probability of True GM Free PCSK9 Maximum Percent Reduction ≥80% [6, 20]: >0.99
% LDL-C reduction from baseline [7]: < 50%
GI absorption [8]: improved
effect of food on plasma exposure ([9]; food consumed 30 minutes after the dose): negligible effect
effect of food on plasma exposure ([9]; food consumed 30 minutes before dosing, compared to fasted): lower plasma exposure
PK in the presence of Labrasol versus sodium caprate ([9]; single dose): similar
effect of permeation enhancers on absorption (Cmax and AUC0-24) ([9]; single dose, with vs without permeation enhancer): improve absorption
plasma exposure versus dose ([9]; single oral doses 10 to 300 mg): dose dependent increase
adverse effects in GLP toxicity study [10]: no adverse effects were observed
GI absorption [11]: improved
adverse effects in GLP toxicity study [12]: no adverse effects were observed

Praluent: anti-PCSK9 monoclonal antibody
reduction in LDL-C [13]: 59%

Inclisiran
reduction in LDL-C [14]: 49-52%

COc1ccc(C[C@@H]2NC(=O)[C@H]([C@@H](C)O)NC(=O)[C@@H]3[C@@H]4CCN3C(=O)[C@@H]3Cc5cn(c6ccc(F)cc56)CCCCCCN(Cc5ccc(cc5)CCNC(=O)[C@]5(C)CCCN5C2=O)C(=O)CCC(=O)N[C@@H](C)C(=O)N[C@H](CNC(=O)CCCCC[N+](C)(C)C)C(=O)N[C@@H](Cc2cccc(c2)CNC(=O)CO4)C(=O)N3)cc1 [compound of formula (I)]
tolerability ([3]; single and multiple oral doses in healthy volunteers): generally well tolerated
lowering of LDL-cholesterol in the blood from baseline ([5]; 14 days of once daily oral dosing, background of moderate-to-high intensity statin therapy): approximately 65%
mean maximum reduction of free plasma PCSK9 levels from baseline ([6]; single doses, all dose levels studied): more than 90%

B1: Repatha: anti-PCSK9 monoclonal antibody (antibody, chains of the INN, looked up, V domains shown)
VH: EVQLVQSGAEVKKPGASVKVSCKASGYTLTSYGISWVRQAPGQGLEWMGWVSFYNGNTNYAQKLQGRGTMTTDPSTSTAYMELRSLRSDDTAVYYCARGYGMDVWGQGTTVTVSS
VL: ESALTQPASVSGSPGQSITISCTGTSSDVGGYNSVSWYQQHPGKAPKLMIYEVSNRPSGVSNRFSGSKSGNTASLTISGLQAEDEADYYCNSYTSTSMVFGGGTKLTVL
reduction in LDL-C [15]: 59%
